Data on eleven compounds can be found in patent US11236087B2, “Highly active pyrazolo-piperidine substituted indole-2-carboxamides active against the hepatitis B virus (HBV)” (AiCuris GmbH & Co. KG, priority 2017, dated 2022).

Data set [1] deals with HBV. In words: Determination of HBV DNA from the supernatants of HepAD38 cells (anti-HBV activity). To be noted: Hepatitis B virus, 144 h; HBV DNA in HepAD38 supernatant, day 6, qPCR; read-out: Cell Activity (EC50). The format is cell-based, hepatitis B virus. In outline: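 HepAD38 cells, tetracycline withdrawn to induce HBV, treated with serial half-log compound dilutions; on day 6 HBV DNA purified from filtered supernatant and quantified by real-time PCR against HBV plasmid standards; EC50 from relative copy numbers by non-linear regression, three experiments in triplicate.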

Data set [2] is described as follows: Cell viability assay (AlamarBlue) in HepAD38 cells. To be noted: human. A general note: Alamar Blue is a resazurin reagent that responds to reducing activity.
Data set [3] deals with T1, HBV core protein (UniProt P03146).
T1 construct: fused on or other part: BODIPY-FL maleimide label on the C-terminal Cys150
T1 sequence (P03146 whole entry, looked up, the tested form may be a part): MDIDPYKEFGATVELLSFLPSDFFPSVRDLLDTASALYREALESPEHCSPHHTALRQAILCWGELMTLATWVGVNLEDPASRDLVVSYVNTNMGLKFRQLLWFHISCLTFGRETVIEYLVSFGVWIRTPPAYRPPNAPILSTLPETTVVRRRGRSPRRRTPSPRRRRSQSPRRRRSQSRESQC
The experiment in a line: Biochemical capsid assembly assay (fluorescence quenching). To be noted: read-out: Assembly Activity (IC50); BODIPY-FL labelled core protein, 300 μM NaCl, read 6 min after start. Also noted: species or system hepatitis B virus. In outline:
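Purified E. coli-expressed HBV core protein (aa 1-149 plus Cys150), BODIPY-FL maleimide-labelled, at 1.0-2.0 μM in 50 mM HEPES pH 7.5 with 0.5% DMSO was used. Compounds were tested at 8 concentrations (0.5-log dilutions from 100, 31.6 or 10 μM). Assembly was started with NaCl ([…]), and fluorescence quenching was read after 6 min (ex 477/em 525 nm). EC50 was determined by non-linear regression.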

For orientation: EC50 means the concentration giving half of the maximal effect. As usually defined, the CC50 is the concentration that lowers cell viability or growth by half. The low end stands for harm at low concentration, the high end for better tolerance by the cells. Broadly, the IC50 is the midpoint of a concentration-inhibition curve.

For `CCc1cc(F)cc2[nH]c(C(=O)N3CCc4[nH]nc(C56CC(C5)C6)c4C3)cc12` [Example 334, 2-(3-{bicyclo[1.1.1]pentan-1-yl}-1H,4H,5H,6H,7H-pyrazolo[4,3-c]pyridine-5-carbonyl)-4-ethyl-6-fluoro-1H-indole], the EC50 in data set [1] is below 1000 nM. The compound also registered a CC50 at 6 days in data set [2] above 10 µM. For the same compound, the half-maximal inhibitory concentration (IC50) in data set [3] is below 5 µM.
For the compound `Cc1cc(F)cc2[nH]c(C(=O)N3CCc4[nH]nc(C56CC(C5)C6)c4C3)cc12` [Example 336, 2-(3-{bicyclo[1.1.1]pentan-1-yl}-1H,4H,5H,6H,7H-pyrazolo[4,3-c]pyridine-5-carbonyl)-6-fluoro-4-methyl-1H-indole], in data set [1], the EC50 is below 1000 nM. Also, in data set [2], the CC50 at 6 days is above 10 µM. The concentration for half-maximal inhibition (IC50) in data set [3] is below 5 µM.
Take `CCc1cccc2[nH]c(C(=O)N3CCc4[nH]nc(C5CCCO5)c4C3)cc12` (stereo not drawn) [Example 337, 4-ethyl-2-[3-(oxolan-2-yl)-1H,4H,5H,6H,7H-pyrazolo[4,3-c]pyridine-5-carbonyl]-1H-indole]: the concentration giving a half-maximal response (EC50) in data set [1] is below 1000 nM. Besides, the half-maximal cytotoxic concentration (CC50) at 6 days in data set [2] was above 10 µM. For the same compound, the IC50 in data set [3] is below 5 µM.
Turning to `O=C(c1cc2c(F)c(F)ccc2[nH]1)N1CCc2[nH]nc(C3CCCO3)c2C1` (stereo not drawn) [Example 338, 4,5-difluoro-2-[3-(oxolan-2-yl)-1H,4H,5H,6H,7H-pyrazolo[4,3-c]pyridine-5-carbonyl]-1H-indole], the EC50 in data set [1] is below 1000 nM. In data set [2], this compound registered a CC50 at 6 days above 10 µM. In data set [3], the 50% inhibitory concentration (IC50) is below 5 µM.
Take `O=C(c1cc2c(F)cc(F)cc2[nH]1)N1CCc2[nH]nc(C3CCCO3)c2C1` (stereo not drawn) [Example 339, 4,6-difluoro-2-[3-(oxolan-2-yl)-1H,4H,5H,6H,7H-pyrazolo[4,3-c]pyridine-5-carbonyl]-1H-indole]: in data set [1], the EC50 is below 1000 nM. Further, in data set [2], the CC50 at 6 days was above 10 µM. In addition, in data set [3], the 50% inhibitory concentration (IC50) was below 5 µM.
As for `CCc1cc(F)cc2[nH]c(C(=O)N3CCc4[nH]nc(C5CCCO5)c4C3)cc12` (stereo not drawn) [Example 340, 4-ethyl-6-fluoro-2-[3-(oxolan-2-yl)-1H,4H,5H,6H,7H-pyrazolo[4,3-c]pyridine-5-carbonyl]-1H-indole], in data set [1], the half-maximal effective concentration (EC50) was below 1000 nM. In addition, the CC50 at 6 days in data set [2] was above 10 µM. Besides, in data set [3], the IC50 is below 5 µM.
Take `O=C(c1cc2c(Cl)cc(F)cc2[nH]1)N1CCc2[nH]nc(C3CCCO3)c2C1` (stereo not drawn) [Example 341, 4-chloro-6-fluoro-2-[3-(oxolan-2-yl)-1H,4H,5H,6H,7H-pyrazolo[4,3-c]pyridine-5-carbonyl]-1H-indole]: the EC50 in data set [1] was below 1000 nM. In data set [2], this compound had a cytotoxic concentration (CC50) at 6 days above 10 µM. Moreover, in data set [3], the IC50 is below 5 µM.
For the compound `Cc1cc(F)cc2[nH]c(C(=O)N3CCc4[nH]nc(C5CCCO5)c4C3)cc12` (stereo not drawn) [Example 342, 6-fluoro-4-methyl-2-[3-(oxolan-2-yl)-1H,4H,5H,6H,7H-pyrazolo[4,3-c]pyridine-5-carbonyl]-1H-indole], the EC50 in data set [1] was below 1000 nM. Also, the CC50 at 6 days in data set [2] is above 10 µM. The IC50 in data set [3] was below 5 µM.
For `O=C(c1cc2ccccc2[nH]1)N1CCc2[nH]nc(C34CC(C3)C4)c2C1` [Example 343, 2-(3-{bicyclo[1.1.1]pentan-1-yl}-1H,4H,5H,6H,7H-pyrazolo[4,3-c]pyridine-5-carbonyl)-1H-indole], the half-maximal effective concentration (EC50) in data set [1] was below 1000 nM. The same compound gave a CC50 at 6 days in data set [2] above 10 µM. For the same compound, the IC50 in data set [3] was below 5 µM.
Consider `O=C(c1cc2ccccc2[nH]1)N1CCc2[nH]nc(C3CCCO3)c2C1` (stereo not drawn) [Example 344, 2-[3-(oxolan-2-yl)-1H,4H,5H,6H,7H-pyrazolo[4,3-c]pyridine-5-carbonyl]-1H-indole], for which the EC50 in data set [1] is below 1000 nM. The CC50 at 6 days in data set [2] is above 10 µM. For the same compound, in data set [3], the IC50 is below 5 µM.
With `CN(C(=O)c1n[nH]c2c1CN(C(=O)c1cc3ccccc3[nH]1)CC2)C1(COCC(F)(F)F)CC1` [Example 359, 5-(1H-indole-2-carbonyl)-N-methyl-N-{1-[(2,2,2-trifluoroethoxy)methyl]cyclopropyl}-1H,4H,5H,6H,7H-pyrazolo[4,3-c]pyridine-3-carboxamide], in data set [1], the EC50 was below 1000 nM. In data set [2], this compound registered a cytotoxic concentration (CC50) at 6 days above 10 µM. For the same compound, the IC50 in data set [3] is below 5 µM.
